Experimental data: article PMC4406737, “Meroterpenoid Chrodrimanins Are Selective and Potent Blockers of Insect GABA-Gated Chloride Channels” (PLoS ONE, 2015)

Assays:
[1] = molecular target: T1, B. mori GABAR RDL (wild-type isoform, exon 3b and exon 6d) (Bombyx mori, UniProt U3TMA1); assay: two-electrode voltage clamp, Xenopus oocytes, agonist concentration-response; assay type: cell-based
T1 construct: full cDNA in pcDNA3.1, cRNA expressed in Xenopus laevis oocytes; RDL injected alone (homomer)
T1 sequence (U3TMA1 29-482): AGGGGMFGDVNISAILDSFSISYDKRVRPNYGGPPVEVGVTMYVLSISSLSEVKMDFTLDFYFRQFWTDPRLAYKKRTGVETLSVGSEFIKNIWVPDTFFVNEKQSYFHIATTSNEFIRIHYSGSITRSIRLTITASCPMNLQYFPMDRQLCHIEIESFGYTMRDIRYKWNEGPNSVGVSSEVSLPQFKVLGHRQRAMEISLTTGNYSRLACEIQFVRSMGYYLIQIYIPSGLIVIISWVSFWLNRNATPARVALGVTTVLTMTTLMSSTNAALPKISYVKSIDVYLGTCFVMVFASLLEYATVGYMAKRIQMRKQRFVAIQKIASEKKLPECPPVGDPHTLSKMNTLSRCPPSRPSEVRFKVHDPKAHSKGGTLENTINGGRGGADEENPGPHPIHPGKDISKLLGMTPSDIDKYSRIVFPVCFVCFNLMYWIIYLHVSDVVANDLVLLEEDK

[2] = molecular target: T1, B. mori GABAR RDL (wild-type isoform, exon 3b and exon 6d); assay: two-electrode voltage clamp, Xenopus oocytes, block of GABA peak current; assay type: cell-based

Row | Compound | EC50 [1] [µM] | IC50 [2] [µM]
1 | NCCCC(=O)O [GABA] | 41.1 | –
2 | N#Cc1nn(-c2c(Cl)cc(C(F)(F)F)cc2Cl)c(N)c1[S+]([O-])C(F)(F)F (centres unmarked) [fipronil] | – | 0.0394
